Holding throughout (format): in vivo
Assay [1] relates to Oryza sativa (rice). As to the kind of experiment: Pre-emergence herbicide action and safener action, rice. As to conditions: herbicide (2.2.16) oxadiazon 400 g of AS/ha, safener (Ia) 75 g of AS/ha, ORYSA. From the text: (§1) The damage to the plants is scored visually using a scale of 0-100%, in comparison to control plants: 0%=no noticeable effect compared to the untreated plant 100%=the treated plants dies. Seeds or rhizome pieces of monocotyledonous and dicotyledonous weed plants and crop plants were placed in sandy loam soil in plastic pots and covered with soil. The herbicide/safener active compound combinations according to the invention, formulated as water-soluble powders or suspensions, and in parallel tests the individual active compounds formulated in a corresponding manner, were then, at various dosages at a water application rate of 300 to 800 l/ha (converted), applied to the surface of the covering soil. After the treatment, the pots were placed in the greenhouse and kept under good growth conditions for the weeds and the crop plants. Visual scoring of the plant damage or emergence damage was carried out after the test plants had emerged after a test period of 2 to 4 weeks, in comparison to untreated controls.

Assay [2] relates to Hordeum vulgare (barley). As to the kind of experiment: Seed treatment with safeners, barley. As to conditions: HORVU. From the text:
(§2) The damage to the plants is scored visually using a scale of 0-100%, in comparison to control plants: 0%=no noticeable effect compared to the untreated plant 100%=the treated plants dies. Seeds of crop plants were mixed in bottles with the safeners according to the invention, formulated as suspension or emulsion concentrates, and water, and the mixture was shaken well so that the seeds were coated evenly with the formulation of the safener in question. The seeds or the emerged plants were then tested with herbicides in the pre- or post-emergence method according to the tests of examples 3.3 and 3.2, respectively.

The test system of assay [3] is economically important harmful plants (weed grases and broad-leaved weeds). Briefly: Pre-emergence herbicide action against harmful plants in the presence of safener. As to conditions: in combination with safener.
Description: as §1

The test system of assay [4] is Zea mays (corn). As to the kind of experiment: Post-emergence herbicide action and safener action, corn. As to conditions: safener (Ia) 50 g of AS/ha, ZEAMX. From the text:
(§3) The damage to the plants is scored visually using a scale of 0-100%, in comparison to control plants: 0%=no noticeable effect compared to the untreated plant 100%=the treated plants dies. Seeds or rhizome pieces of monocotyledonous and dicotyledonous harmful plants and crop plants are placed in sandy loam soil in plastic pots, covered with soil and cultivated in the greenhouse under good growth conditions. Alternatively, harmful plants encountered in paddy rice cultivation are cultivated in pots in which the surface of the soil is covered by up to 2 cm of water. Ten to twenty days after sowing, the test plants are treated at the one to three-leaf stage. The herbicide/safener active compound combinations according to the invention, formulated as water-soluble powders or suspensions, and in parallel tests the individual active compounds formulated in a corresponding manner, are sprayed at various dosages at a water application rate of 300 l/ha (converted) onto the green parts of the plants, and, after the test plants were left to stand in the greenhouse for about 2 to 3 weeks under optimum growth conditions, the effect of the preparations is scored visually in comparison to untreated controls. In the case of rice or harmful plants encountered in the cultivation of rice, the active compounds are also added directly to the irrigation water (application analogously to the so-called granule application) or sprayed onto the plants and into the irrigation water.

The subject of assay [5] is Oryza sativa (rice). As to the kind of experiment: Post-emergence herbicide action and safener action, rice. The conditions noted are these: ORYSA.
Description: as §3

Assay [6] relates to Zea mays (corn). Briefly: Seed treatment with safeners, corn. As to conditions: ZEAMX.
Description: as §2

Assay [7] has as its system Triticum aestivum (spring wheat). As to the kind of experiment: Seed treatment with safeners, spring wheat. The conditions noted are these: safener (Ia) 1.0 g of AS/kg seed, TRZAS.
Description: as §2

Assay [8] deals with Zea mays (corn). As to the kind of experiment: Pre-emergence herbicide action and safener action, corn. As to conditions: ZEAMX.
Description: as §1

Assay [9] concerns Triticum aestivum (spring wheat). Briefly: Post-emergence herbicide action and safener action, spring wheat. The conditions noted are these: TRZAS.
Description: as §3

Assay [10] has as its system economically important harmful plants (weed grases and broad-leaved weeds). Briefly: Post-emergence herbicide action against harmful plants in the presence of safener. As to conditions: in combination with safener.
Description: as §3

Assay [11] deals with Hordeum vulgare (barley). As to the kind of experiment: Post-emergence herbicide action and safener action, barley. As to conditions: safener (Ia) 100 g of AS/ha, HORVU.
Description: as §3

The mark [12] stands for this setting: herbicide (1.2.1.58) thiencarbazone-methyl 15 g of AS/ha.

SMILES strings stand for the structures.

For `NC(=O)c1ccc(C(F)(F)F)[nH]c1=O` [safener (Ia), 2-oxo-6-trifluoromethyl-1,2-dihydropyridine-3-carboxamide], the “Reduction of the harmful effect” value in [1] is recorded as “category B (category B = 20-49% reduction of the harmful action)”; in assay [2] (herbicide (1.2.1.14) mesosulfuron-methyl 30 g of AS/ha, safener (Ia) 0.5 g of AS/kg seed), “category A (category A = 50-100% reduction of the harmful action)”; in [2] (herbicide (1.2.1.58) thiencarbazone-methyl 15 g of AS/ha, safener (Ia) 1.0 g of AS/kg seed), “category A (category A = 50-100% reduction of the harmful action)”; in assay [4] (herbicide (1.2.1.11b) iodosulfuron-methyl-sodium 100 g of AS/ha), “category B (category B = 20-49% reduction of the harmful action)”; in assay [4] (herbicide (1.2.1.48) imazethapyr 100 g of AS/ha), “category A (category A = 50-100% reduction of the harmful action)”; in assay [4] (herbicide (2.2.12) flumioxazin 50 g of AS/ha), “category A (category A = 50-100% reduction of the harmful action)”. The “Reduction of the harmful effect” value in assay [5] (herbicide (1.1.1.4) mesotrione 400 g of AS/ha, safener (Ia) 75 g of AS/ha) is listed as “category A (category A = 50-100% reduction of the harmful action)”; in assay [5] (herbicide (1.1.1.4) mesotrione 600 g of AS/ha, applied to the water around the test plants (paddy rice conditions), safener (Ia) 75 g of AS/ha), “category A (category A = 50-100% reduction of the harmful action)”; in [5] (herbicide (1.2.1.15) foramsulfuron 15 g of AS/ha, safener (Ia) 100 g of AS/ha), “category B (category B = 20-49% reduction of the harmful action)”; in assay [5] (herbicide (1.2.1.58) thiencarbazone-methyl 10 g of AS/ha, safener (Ia) 300 g of AS/ha) it was “category A (category A = 50-100% reduction of the harmful action)”; in assay [5] (herbicide (1.2.1.62b) bispyribac-sodium 200 g of AS/ha, safener (Ia) 75 g of AS/ha) it was “category A (category A = 50-100% reduction of the harmful action)”; in [5] (herbicide (1.3.1.20c) fenoxaprop-P-ethyl 100 g of AS/ha, safener (Ia) 300 g of AS/ha), “category A (category A = 50-100% reduction of the harmful action)”. The “Reduction of the harmful effect” value is “category A (category A = 50-100% reduction of the harmful action)” in assay [5] (herbicides (1.2.1.14) mesosulfuron-methyl + (1.2.1.11b) iodosulfuron-methyl-sodium 4 + 0.8 g of AS/ha, safener (Ia) 150 g of AS/ha); “category A (category A = 50-100% reduction of the harmful action)” in assay [6] (herbicide (1.1.1.22) isoxaflutole 200 g of AS/ha, safener (Ia) 0.5 g of AS/kg seed); “category A (category A = 50-100% reduction of the harmful action)” in assay [6] (herbicide (1.2.1.58) thiencarbazone-methyl 5 g of AS/ha, safener (Ia) 1.0 g of AS/kg seed); “category A (category A = 50-100% reduction of the harmful action)” in assay [7] (herbicide (1.2.1.14) mesosulfuron-methyl 30 g of AS/ha); “category A (category A = 50-100% reduction of the harmful action)” in [7] (setting [12]); “category A (category A = 50-100% reduction of the harmful action)” in [8] (herbicide (1.1.1.22) isoxaflutole 300 g of AS/ha, safener (Ia) 300 g of AS/ha). Besides, the “Reduction of the harmful effect” value in [8] (herbicide (1.4.4.17) flufenacet 125 g of AS/ha, safener (Ia) 150 g of AS/ha) is reported as “category A (category A = 50-100% reduction of the harmful action)”; in assay [9] (herbicide (1.1.1.10) tembotrione 20 g of AS/ha, safener (Ia) 80 g of AS/ha), “category A (category A = 50-100% reduction of the harmful action)”; in assay [9] (herbicide (1.1.2.10) picolinafen 200 g of AS/ha, safener (Ia) 100 g of AS/ha), “category A (category A = 50-100% reduction of the harmful action)”; in [9] (herbicide (1.2.1.14) mesosulfuron-methyl 40 g of AS/ha, safener (Ia) 80 g of AS/ha), “category A (category A = 50-100% reduction of the harmful action)”; in assay [9] (herbicide (1.2.1.58) thiencarbazone-methyl 15 g of AS/ha, safener (Ia) 100 g of AS/ha) it was “category A (category A = 50-100% reduction of the harmful action)”; in [9] (herbicide (1.3.1.20c) fenoxaprop-P-ethyl 100 g of AS/ha, safener (Ia) 20 g of AS/ha) it was “category A (category A = 50-100% reduction of the harmful action)”. The “Reduction of the harmful effect” value in assay [9] (herbicide (2.2.12) flumioxazin 100 g of AS/ha, safener (Ia) 50 g of AS/ha) is given as “category B (category B = 20-49% reduction of the harmful action)”; in [11] (herbicide (1.1.1.10) tembotrione 20 g of AS/ha) it was “category A (category A = 50-100% reduction of the harmful action)”; in assay [11] (setting [12]), “category A (category A = 50-100% reduction of the harmful action)”; in assay [11] (herbicide (1.3.1.20c) fenoxaprop-P-ethyl 400 g of AS/ha), “category A (category A = 50-100% reduction of the harmful action)”. For the same compound, the “action of the respective herbicide against economically important harmful plants” value (from here on “action of the respective herbicide”) in assay [3] is listed as “not, or not substantially, adversely affected”. For the same compound, the “action of the herbicide against economically important harmful plants” value (shortened to “action of the herbicide”) in [10] is given as “not, or not substantially, adversely affected”.
Consider `NC(=O)c1ccc(C(F)(F)Cl)[nH]c1=O` [safener (Ib), 2-oxo-6-difluorochloromethyl-1,2-dihydropyridine-3-carboxamide], for which the “action of the respective herbicide” value in [3] is given as “not, or not substantially, adversely affected”. For the same compound, the “action of the herbicide” value in [10] is “not, or not substantially, adversely affected”.
As for `NC(=O)c1ccc(C(F)F)nc1O` [safener (Ic), 2-oxo-6-difluoromethyl-1,2-dihydropyridine-3-carboxamide], the “action of the respective herbicide” value in assay [3] is listed as “not, or not substantially, adversely affected”. Besides, the “action of the herbicide” value in assay [10] is reported as “not, or not substantially, adversely affected”.
